Here are results for 5 compounds from article PMC6791321, “CD23 is a glycan-binding receptor in some mammalian species” (The Journal of Biological Chemistry, 2019).

In general, Ki refers to a measure of affinity in units of concentration, obtained from inhibition or displacement. A higher Ki goes with a looser hold on the target.

Common to all, as to assay type: binding
For one experiment, the target named is T1, mouse CD23 CRD (Mus musculus, UniProt P20693).
T1 construct: gene Fcer2
T1 sequence (P20693 185-298 limits assumed): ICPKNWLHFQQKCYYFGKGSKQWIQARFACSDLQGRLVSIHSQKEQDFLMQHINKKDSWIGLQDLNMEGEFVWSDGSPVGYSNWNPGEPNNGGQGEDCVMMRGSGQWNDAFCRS
Description: solid-phase competition with horseradish peroxidase reporter, immobilized biotin-tagged CRD. The note with it: pH 7.8, 2.5 mM CaCl2, 150 mM NaCl, 4 °C, competitive, KI approximates KD.

In experiment [1] the target is T2, cow CD23 CRD (Bos taurus, UniProt E1BIQ4).
T2 construct: gene FCER2; untagged for crystals; C-terminal biotinylation tag LNDIFEAQKIEWHE for solid-phase assays
T2 sequence (E1BIQ4 169-302): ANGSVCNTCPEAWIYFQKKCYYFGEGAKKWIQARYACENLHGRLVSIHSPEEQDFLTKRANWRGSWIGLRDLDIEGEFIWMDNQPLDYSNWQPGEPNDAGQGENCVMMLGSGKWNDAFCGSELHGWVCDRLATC
The description is as above. The conditions noted are these: pH 7.8, 2.5 mM CaCl2, 150 mM NaCl, 4 °C, competitive, KI approximates KD. From the text:
solid-phase competition with horseradish peroxidase reporter, immobilized biotin-tagged CRD on cow CD23 CRD | The three monosaccharides with highest affinity are mannose, fucose, and GlcNAc

Experiment [2] addresses T2, cow CD23 CRD. Described as above. The note with it: pH 7.8, 2.5 mM CaCl2, 150 mM NaCl, 4 °C; competitive.
The target in experiment [3] is T2, cow CD23 CRD. The experiment can be described thus: solid-phase competition with horseradish peroxidase reporter, immobilized biotin-tagged CRD; also crystal structure at […] Å (untagged CRD).
[4] abbreviates: may have been tested as methyl glycoside.

Structures are written as SMILES.

Consider `CC(=O)N[C@H]1C(O)O[C@H](CO)[C@@H](O)[C@@H]1O` (some centres unmarked) [GlcNAc], for which the results for the Ki at mouse CD23 CRD and at cow CD23 CRD [1] were 5200 µM and 1100 µM, respectively.
Turning to `CC(=O)N[C@H]1[C@H](O[C@H]2[C@H](O)[C@@H](NC(C)=O)C(O)O[C@@H]2CO)O[C@H](CO)[C@@H](O[C@@H]2O[C@H](CO[C@H]3O[C@H](CO[C@H]4O[C@H](CO)[C@@H](O)[C@H](O)[C@@H]4O[C@H]4O[C@H](CO)[C@@H](O)[C@H](O)[C@@H]4O)[C@@H](O)[C@H](O[C@H]4O[C@H](CO)[C@@H](O)[C@H](O)[C@@H]4O[C@H]4O[C@H](CO)[C@@H](O)[C@H](O)[C@@H]4O)[C@@H]3O)[C@@H](O)[C@H](O[C@H]3O[C@H](CO)[C@@H](O)[C@H](O)[C@@H]3O[C@H]3O[C@H](CO)[C@@H](O)[C@H](O)[C@@H]3O[C@H]3O[C@H](CO)[C@@H](O)[C@H](O)[C@@H]3O)[C@@H]2O)[C@@H]1O` (some centres unmarked) [Man9GlcNAc2], the “ratio of affinities relative to α-methyl mannoside” value at cow CD23 CRD [2] came out at 240 ± 50 fold.
As for `C[C@@H]1OC(O)[C@@H](O)[C@H](O)[C@@H]1O` (some centres unmarked) [fucose], the results for the Ki on mouse CD23 CRD (setting [4]) and on cow CD23 CRD [1] (setting [4]) were 8400 µM and 1800 µM, respectively.
Turning to `OC[C@H]1OC(O)[C@@H](O)[C@@H](O)[C@@H]1O` (some centres unmarked) [mannose], the Ki on mouse CD23 CRD stood at 5700 µM; on cow CD23 CRD [1], 1600 µM.
As for `CO[C@H]1O[C@H](CO)[C@@H](O)[C@H](O)[C@@H]1O` [α-methyl mannoside], on cow CD23 CRD [3], the Ki was determined as 1600 µM.
